Experiments:
[1] = tested on: resistant Escherichia coli; assay: MIC alone and in combination against 30 strains of resistant Escherichia coli; format: cell-based
Protocol: The manner in which the compounds of the formula I increase the effectiveness of the compound of formula XXII and the pharmaceutically-acceptable salts thereof can be appreciated by reference to experiments in which the MIC of the compound of the formula XXII alone, and the compound of the formula I wherein R^1 is hydrogen alone, are measured. These MIC's are then compared with the MIC values obtained with a combination of the compound of formula XXII and the compound of the formula I, wherein R^1 is hydrogen. […] The MIC values of combinations are measured using the method described by Barry and Sabath in "Manual of Clinical Microbiology", edited by Lenette, Spaulding and Truant, 2nd edition, 1974, American Society of Microbiology.
The minimum inhibitory concentrations (MIC's) of penicillanic acid 1,1-dioxide (PA 1,1-dioxide) alone and 7-(D-2-[4-ethylpiperazine-2,3-dione-1-carboxamido]-2-[4-hydroxyphenyl]acetamido)-3-([1-methyl-5-tetrazolyl]thiomethyl)-3-desacetoxymethylcephalosporanic acid (T-1551) alone, against 30 strains of resistant Escherichia coli, were measured. These MIC's were then compared with the MIC values obtained with a combination of the two compounds. The results were as follows:
The MIC's were measured using the method recommended by the International Collaborative Study on Antibiotic Sensitivity Testing (Ericcson and Sherris, Acta. Pathologica et Microbiologica Scandivav, Supp. 217, Section B, 64-68 [1971]), which employed brain heart infusion agar and the inocular replicating device. Overnight growth tubes were diluted 10-fold for use as the standard inoculum. Twelve two-fold dilutions of the test compound were employed with initial concentration of the test drug being 200 mcg/ml. Single colonies were disregarded when reading plates after 18 hours at 37° C. […] The MIC's of combinations were measured using the method described by Barry and Sabath in "Manual of Clinical Microbiology", edited by Lenette, Spaulding and Truant, 2nd edition, 1974, American Society for Microbiology.

[2] = tested on: microbial beta-lactamases; assay: Inhibition of microbial beta-lactamases; format: biochemical; conditions: result in words

| SMILES | MIC ([1]; alone, BHI agar, 18 hours at 37° C., read-out: Mode MIC of T-1551 alone) [µg/mL] | Mode MIC's of T-1551 & PA 1,1-Dioxide in Combination: T-1551 ([1]; in combination with PA 1,1-Dioxide (1.56)) | Mode MIC's of T-1551 & PA 1,1-Dioxide in Combination: PA 1,1-Dioxide ([1]; in combination with T-1551 (1.56)) | inhibition of microbial beta-lactamases [2] |
| --- | --- | --- | --- | --- |
| CCN1CCN(C(=O)N[C@@H](C(=O)N[C@@H]2C(=O)N3C(C(=O)O)=C(CSc4nnnn4C)CS[C@H]23)c2ccc(O)cc2)C(=O)C1=O [Example T-1551, 7-(D-2-[4-ethylpiperazine-2,3-dione-1-carboxamido]-2-[4-hydroxyphenyl]acetamido)-3-([1-methyl-5-tetrazolyl]thiomethyl)-3-desacetoxymethylcephalosporanic acid] | 100 | 1.56 |  |  |
| CC1(C)[C@H](C(=O)O)N2C(=O)C[C@H]2S1(=O)=O [Penicillanic Acid 1,1-Dioxide] |  |  | 1.56 | potent inhibitors of microbial beta-lactamases |

Source: patent US4276285A, “Combinations of penicillanic acid 1,1-dioxide with 7-(D-2-[4-ethylpiperazin-2,3-dione-1-carboxamido]-2-[4-hydroxyphenyl]ace tamido)-3-([1-methyl-5-tetrazolyl]thiomethyl)-3-desacetoxymethylcephalosp oranic acid” (priority 1979, dated 1981)
